In ChEMBL document CHEMBL2074392, “Three-dimensional quantitative structure-activity relationships of inhibitors of P-glycoprotein” (Mol Pharmacol, 2002):
pIC50, pKi: −log10 of the molar value.

Legend:
Format in all cases: functional, cell-based
[1] = molecular target: T1, ATP-dependent translocase ABCB1 (Homo sapiens, UniProt P08183); assay: TP_TRANSPORTER: increase in Vinblastine intracellular accumulation in MDR1-expressing LLC-PK1 cells
[2] = molecular target: T1, ATP-dependent translocase ABCB1; assay: TP_TRANSPORTER: increase in Calcein-AM intracellular accumulation in MDR1-expressing LLC-PK1 cells
[3] = molecular target: T1, ATP-dependent translocase ABCB1; assay: TP_TRANSPORTER: inhibition of Digoxin transepithelial transport (basal to apical) (Digoxin: 5 uM) in Caco-2 cells

T1 sequence (P08183 whole entry): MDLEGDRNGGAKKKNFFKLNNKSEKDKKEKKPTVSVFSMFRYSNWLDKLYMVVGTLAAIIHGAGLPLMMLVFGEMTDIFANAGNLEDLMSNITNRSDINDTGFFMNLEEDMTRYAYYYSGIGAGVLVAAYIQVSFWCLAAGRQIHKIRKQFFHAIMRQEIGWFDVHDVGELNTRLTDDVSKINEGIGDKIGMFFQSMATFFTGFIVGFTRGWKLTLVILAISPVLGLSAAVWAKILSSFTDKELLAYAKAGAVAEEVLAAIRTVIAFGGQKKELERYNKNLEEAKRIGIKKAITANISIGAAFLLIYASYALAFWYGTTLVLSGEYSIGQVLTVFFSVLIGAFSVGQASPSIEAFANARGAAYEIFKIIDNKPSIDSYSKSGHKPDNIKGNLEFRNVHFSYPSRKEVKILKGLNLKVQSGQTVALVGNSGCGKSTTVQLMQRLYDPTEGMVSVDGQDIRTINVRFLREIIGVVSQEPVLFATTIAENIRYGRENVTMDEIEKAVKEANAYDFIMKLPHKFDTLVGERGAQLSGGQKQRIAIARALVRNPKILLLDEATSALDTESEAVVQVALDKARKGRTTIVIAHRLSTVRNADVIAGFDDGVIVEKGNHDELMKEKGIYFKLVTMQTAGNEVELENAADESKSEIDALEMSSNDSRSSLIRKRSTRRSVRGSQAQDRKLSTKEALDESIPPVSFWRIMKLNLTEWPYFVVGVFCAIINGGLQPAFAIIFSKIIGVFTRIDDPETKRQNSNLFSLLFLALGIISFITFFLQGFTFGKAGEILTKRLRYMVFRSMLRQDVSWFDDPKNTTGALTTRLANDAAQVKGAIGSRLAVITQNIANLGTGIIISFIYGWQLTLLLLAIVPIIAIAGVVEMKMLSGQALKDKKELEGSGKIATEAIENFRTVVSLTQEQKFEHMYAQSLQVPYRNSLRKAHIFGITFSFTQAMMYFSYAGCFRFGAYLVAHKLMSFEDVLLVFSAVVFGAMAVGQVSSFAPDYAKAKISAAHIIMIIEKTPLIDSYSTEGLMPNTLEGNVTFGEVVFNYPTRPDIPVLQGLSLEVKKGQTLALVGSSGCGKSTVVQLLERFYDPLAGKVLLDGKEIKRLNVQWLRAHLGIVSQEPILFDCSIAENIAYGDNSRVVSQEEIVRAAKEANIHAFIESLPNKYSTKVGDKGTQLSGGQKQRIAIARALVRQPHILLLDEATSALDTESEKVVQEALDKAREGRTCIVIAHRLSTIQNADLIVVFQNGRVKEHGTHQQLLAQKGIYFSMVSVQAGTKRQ

## CN1C[C@H](C(=O)N[C@]2(C)O[C@@]3(O)[C@@H]4CCCN4C(=O)[C@H](Cc4ccccc4)N3C2=O)C=C2c3cccc4[nH]cc(c34)C[C@H]21 [ERGOTAMINE]
[1]
  pKi: 4.85
[2]
  pKi: 4.00

## CC(C)[C@@]1(NC(=O)[C@@H]2C=C3c4cccc5[nH]cc(c45)C[C@H]3N(C)C2)O[C@@]2(O)[C@@H]3CCCN3C(=O)[C@H](Cc3ccccc3)N2C1=O [ERGOCRISTINE]
[1]
  pKi: 4.88
[2]
  pKi: 4.37

## CC(C)[C@@]1(NC(=O)[C@@H]2C[C@@H]3c4cccc5[nH]cc(c45)C[C@H]3N(C)C2)O[C@@]2(O)[C@@H]3CCCN3C(=O)[C@H](Cc3ccccc3)N2C1=O [DIHYDROERGOCRISTINE]
[1]
  pKi: 4.80
[2]
  pKi: 3.29

## CC(C)[C@H]1C(=O)N2CCC[C@H]2[C@]2(O)O[C@](NC(=O)[C@@H]3C=C4c5cccc6[nH]cc(c56)C[C@H]4N(C)C3)(C(C)C)C(=O)N12 [ERGOCORNINE]
[1]
  pKi: 4.61
[2]
  pKi: 3.98

## CC(C)C[C@H]1C(=O)N2CCC[C@H]2[C@]2(O)O[C@](NC(=O)[C@@H]3C=C4c5cccc6[nH]c(Br)c(c56)C[C@H]4N(C)C3)(C(C)C)C(=O)N12 [BROMOCRIPTINE]
[1]
  pKi: 5.40
[2]
  pKi: 5.55

## CC(C)C[C@H]1C(=O)N2CCC[C@H]2[C@]2(O)O[C@](NC(=O)[C@@H]3C[C@@H]4c5cccc6[nH]cc(c56)C[C@H]4N(C)C3)(C(C)C)C(=O)N12 [DIHYDROERGOCRYPTINE]
[1]
  pKi: 4.70
[2]
  pKi: 3.44

## CC(C)C[C@H]1C(=O)N2CCC[C@H]2[C@]2(O)O[C@](NC(=O)[C@@H]3C=C4c5cccc6[nH]cc(c56)C[C@H]4N(C)C3)(C(C)C)C(=O)N12 [ERGOCRYPTINE]
[1]
  pKi: 5.19
[2]
  pKi: 4.91

## C[C@@H](CO)NC(=O)[C@@H]1C=C2c3cccc4[nH]cc(c34)C[C@H]2N(C)C1 [ERGONOVINE]
[1]
  pKi: < 4.00
[2]
  pKi: 3.94

## COC(=O)[C@H]1[C@H]2C[C@@H]3c4[nH]c5cc(OC)ccc5c4CCN3C[C@H]2C[C@@H](OC(=O)c2cc(OC)c(OC)c(OC)c2)[C@@H]1OC [RESERPINE]
[1]
  pKi: 6.01
[2]
  pKi: 4.91

## OC(Cn1cncn1)(Cn1cncn1)c1ccc(F)cc1F [FLUCONAZOLE]
[1]
  pKi: < 3.40
[2]
  pKi: < 3.00

## COc1ccc(CCCN2CCC(Cc3ccccc3)CC2)cc1OC
[3]
  pIC50: 5.64

## CN1C[C@H](C(=O)N[C@]2(C)O[C@@]3(O)[C@@H]4CCCN4C(=O)[C@H](Cc4ccccc4)N3C2=O)C[C@@H]2c3cccc4[nH]cc(c34)C[C@H]21 [DIHYDROERGOTAMINE]
[1]
  pKi: 3.92
[2]
  pKi: < 3.00
